# From patent US20250129430A1, “HIGH ATP-AFFINITY PROTEIN AS THERAPEUTIC TARGET FOR INTRACTABLE CANCER MOLECULAR SUBTYPES AND INHIBITOR THEREOF” (VeraVerse Co., Ltd., priority 2021, published 2025)
# Columns and labels:
# Type in all cases: cell-based, human
# [1] = system: AGS; experiment: Cell viability drug screen, 12-point dose-response AUC; conditions: AGS cells; 72 hours; 12-point dose-response
# Method in brief: (§1)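 Gastric cancer lines seeded 5×10^3 cells/well, dosed after 24 h with half-log 12-point compound dilutions (DMSO 0.5% control), then 72 h at 37 °C. Viability by luminescence, normalized to DMSO; AUC by trapezoidal method, averaged over repeats.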
# [2] = system: Hs746T; experiment: as above; conditions: Hs746T cells; 72 hours; 12-point dose-response
# Method in brief: as §1
# [3] = system: KATO3; experiment: as above; conditions: KATO3 cells; 72 hours; 12-point dose-response
# Method in brief: as §1
# [4] = system: MKN1; experiment: as above; conditions: MKN1 cells; 72 hours; 12-point dose-response
# Method in brief: as §1
# [5] = system: MKN28; experiment: as above; conditions: MKN28 cells; 72 hours; 12-point dose-response
# Method in brief: as §1
# [6] = system: MKN45; experiment: as above; conditions: MKN45 cells; 72 hours; 12-point dose-response
# Method in brief: as §1
# [7] = system: MKN74; experiment: as above; conditions: MKN74 cells; 72 hours; 12-point dose-response
# Method in brief: as §1
# [8] = system: NCC19; experiment: as above; conditions: NCC19 cells; 72 hours; 12-point dose-response
# Method in brief: as §1
# [9] = system: NCC20; experiment: as above; conditions: NCC20 cells; 72 hours; 12-point dose-response
# Method in brief: as §1
# [10] = system: NCC24; experiment: as above; conditions: NCC24 cells; 72 hours; 12-point dose-response
# Method in brief: as §1
# [11] = system: NCC59; experiment: as above; conditions: NCC59 cells; 72 hours; 12-point dose-response
# Method in brief: as §1
# [12] = system: NCI_N87; experiment: as above; conditions: NCI_N87 cells; 72 hours; 12-point dose-response
# Method in brief: as §1
# [13] = system: OCUM1; experiment: as above; conditions: OCUM1 cells; 72 hours; 12-point dose-response
# Method in brief: as §1
# [14] = system: SK4; experiment: as above; conditions: SK4 cells; 72 hours; 12-point dose-response
# Method in brief: as §1
# [15] = system: SNU16; experiment: as above; conditions: SNU16 cells; 72 hours; 12-point dose-response
# Method in brief: as §1
# [16] = system: SNU1750; experiment: as above; conditions: SNU1750 cells; 72 hours; 12-point dose-response
# Method in brief: as §1
# [17] = system: SNU1967; experiment: as above; conditions: SNU1967 cells; 72 hours; 12-point dose-response
# Method in brief: as §1
# [18] = system: SNU1; experiment: as above; conditions: SNU1 cells; 72 hours; 12-point dose-response
# Method in brief: as §1
# [19] = system: SNU216; experiment: as above; conditions: SNU216 cells; 72 hours; 12-point dose-response
# Method in brief: as §1
# [20] = system: SNU484; experiment: as above; conditions: SNU484 cells; 72 hours; 12-point dose-response
# Method in brief: as §1
# [21] = system: SNU601; experiment: as above; conditions: SNU601 cells; 72 hours; 12-point dose-response
# Method in brief: as §1
# [22] = system: SNU620; experiment: as above; conditions: SNU620 cells; 72 hours; 12-point dose-response
# Method in brief: as §1
# [23] = system: SNU638; experiment: as above; conditions: SNU638 cells; 72 hours; 12-point dose-response
# Method in brief: as §1
# [24] = system: SNU668; experiment: as above; conditions: SNU668 cells; 72 hours; 12-point dose-response
# Method in brief: as §1
# [25] = system: SNU719; experiment: as above; conditions: SNU719 cells; 72 hours; 12-point dose-response
# Method in brief: as §1
# [26] = system: YCC11; experiment: as above; conditions: YCC11 cells; 72 hours; 12-point dose-response
# Method in brief: as §1
# [27] = system: YCC2; experiment: as above; conditions: YCC2 cells; 72 hours; 12-point dose-response
# Method in brief: as §1
# [28] = system: YCC3; experiment: as above; conditions: YCC3 cells; 72 hours; 12-point dose-response
# Method in brief: as §1
# [29] = system: FU97; experiment: as above; conditions: FU97 cells; 72 hours; 12-point dose-response
# Method in brief: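 Trapezoidal AUC of a 12-point, DMSO-normalized dose-response curve. Luminescent viability was measured after 72 h of exposure at 37° C to half-log serial dilutions (0.5% DMSO control), dosed 24 h after plating FU97 cells at 5×10^3 per well.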
# [30] = system: SEM-type gastric cancer cell line; experiment: Cell viability drug screen, AUC summary over SEM-type lines
# Procedure: An FDA-approved small-molecule pharmacological compound (#L1300) and an anticancer compound for research (#L2000) were purchased from Selecckchem and a 10 mM solution was prepared in DMSO. A total of 1,345 compounds were tested the cell viability of the seven EMT gastric cancer cell lines.
# Cells cultured for cell-based drug assay were inoculated into a 96-well white optical plate (Corning) at 5×10^3 cells per well. After 24 hours after inoculation, a 2.5 MJT (primary screen) or a half-log 12-serial diluent (secondary screen) of the pharmacological compound contained in DMSO is added to the cells with a robot using a BioMek FXp liquid processor (Beckman) to add to the cells at 50 mM. The final drug concentration in the 5 ns range and the DMSO specification control (0.5%) were calculated. The cells were then further incubated at 37° C. in a 5% CO2 incubator for 72 hours prior to measuring cell viability using the extra-GLO assay kit (Promega). The luminescent properties were measured after 15 min incubation at room temperature using a plate stacker equipped with a plate stacker. The normalized viability for the DMSO-based control was measured to generate a cell line-specific 12-point dose-response curve for each pharmacological compound, and then the area under the curve (AUC) was calculated using a trapezoidal method.
# [31] = system: non-SEM-type gastric cancer cell line; experiment: Cell viability drug screen, AUC summary over non-SEM-type lines; conditions: in the non-SEM-type gastric cancer cell line
structure (smiles),measurement,setting,value
"Nc1ccc(-c2ccc3ncc4ccc(=O)n(-c5cccc(C(F)(F)F)c5)c4c3c2)cn1 [Torin, Torin 2]","area under the viability curve (AUC), normalized",[1],−1.701
same,"area under the viability curve (AUC), normalized",[2],−0.7581
same,"area under the viability curve (AUC), normalized",[3],2.66
same,"area under the viability curve (AUC), normalized",[4],−1.574
same,"area under the viability curve (AUC), normalized",[5],0.8861
same,"area under the viability curve (AUC), normalized",[6],0.6704
same,"area under the viability curve (AUC), normalized",[7],−0.1868
same,"area under the viability curve (AUC), normalized",[8],1.614
same,"area under the viability curve (AUC), normalized",[9],−1.598
same,"area under the viability curve (AUC), normalized",[10],0
same,"area under the viability curve (AUC), normalized",[11],1.584
same,"area under the viability curve (AUC), normalized",[12],0.3078
same,"area under the viability curve (AUC), normalized",[13],−0.1127
same,"area under the viability curve (AUC), normalized",[14],−2.722
same,"area under the viability curve (AUC), normalized",[15],0.9803
same,"area under the viability curve (AUC), normalized",[16],−0.787
same,"area under the viability curve (AUC), normalized",[17],−0.557
same,"area under the viability curve (AUC), normalized",[18],1.392
same,"area under the viability curve (AUC), normalized",[19],−0.4964
same,"area under the viability curve (AUC), normalized",[20],−0.505
same,"area under the viability curve (AUC), normalized",[21],0.4104
same,"area under the viability curve (AUC), normalized",[22],0.3965
same,"area under the viability curve (AUC), normalized",[23],0.3739
same,"area under the viability curve (AUC), normalized",[24],0.4391
same,"area under the viability curve (AUC), normalized",[25],3.841
same,"area under the viability curve (AUC), normalized",[26],−2.299
same,"area under the viability curve (AUC), normalized",[27],−0.06527
same,"area under the viability curve (AUC), normalized",[28],1.399
same,"area under the viability curve (AUC), normalized",[29],−1.526
same,normalized viability AUC,[30],negative
same,AUC value,[31],high
"C[C@@H]1O[C@@H](O[C@H]2C[C@@H](O)[C@]3(CO)[C@H]4[C@H](O)C[C@]5(C)[C@@H](C6=CC(=O)OC6)CC[C@]5(O)[C@@H]4CC[C@]3(O)C2)[C@H](O)[C@H](O)[C@H]1O [Oubain, Ouabain]","area under the viability curve (AUC), normalized",[1],−0.4351
same,"area under the viability curve (AUC), normalized",[2],0.3093
same,"area under the viability curve (AUC), normalized",[3],4.783
same,"area under the viability curve (AUC), normalized",[4],−1.223
same,"area under the viability curve (AUC), normalized",[5],−0.5183
same,"area under the viability curve (AUC), normalized",[6],−0.3665
same,"area under the viability curve (AUC), normalized",[7],−0.9472
same,"area under the viability curve (AUC), normalized",[8],0.3874
same,"area under the viability curve (AUC), normalized",[9],0.2365
same,"area under the viability curve (AUC), normalized",[10],−0.2417
same,"area under the viability curve (AUC), normalized",[11],1.567
same,"area under the viability curve (AUC), normalized",[12],0.9192
same,"area under the viability curve (AUC), normalized",[13],0.1113
same,"area under the viability curve (AUC), normalized",[14],−1.414
same,"area under the viability curve (AUC), normalized",[15],2.229
same,"area under the viability curve (AUC), normalized",[16],−0.7374
same,"area under the viability curve (AUC), normalized",[17],0.9873
same,"area under the viability curve (AUC), normalized",[18],−0.4741
same,"area under the viability curve (AUC), normalized",[19],0.2009
same,"area under the viability curve (AUC), normalized",[20],−2.03
same,"area under the viability curve (AUC), normalized",[21],2.702
same,"area under the viability curve (AUC), normalized",[22],0
same,"area under the viability curve (AUC), normalized",[23],1.054
same,"area under the viability curve (AUC), normalized",[24],−1.026
same,"area under the viability curve (AUC), normalized",[25],5.038
same,"area under the viability curve (AUC), normalized",[26],−0.3494
same,"area under the viability curve (AUC), normalized",[27],−0.6785
same,"area under the viability curve (AUC), normalized",[28],4.209
same,"area under the viability curve (AUC), normalized",[29],−0.3889
same,normalized viability AUC,[30],negative
same,AUC value,[31],high
COc1ncc(-c2ccc3nccc(-c4ccnnc4)c3c2)cc1NS(=O)(=O)c1ccc(F)cc1F [GSK2126458],"area under the viability curve (AUC), normalized",[1],−2.286
same,"area under the viability curve (AUC), normalized",[2],−0.063
same,"area under the viability curve (AUC), normalized",[3],3.911
same,"area under the viability curve (AUC), normalized",[4],−1.1278
same,"area under the viability curve (AUC), normalized",[5],0.15
same,"area under the viability curve (AUC), normalized",[6],0.05353
same,"area under the viability curve (AUC), normalized",[7],0
same,"area under the viability curve (AUC), normalized",[8],0.4665
same,"area under the viability curve (AUC), normalized",[9],−1.107
same,"area under the viability curve (AUC), normalized",[10],−1.197
same,"area under the viability curve (AUC), normalized",[11],2.2975
same,"area under the viability curve (AUC), normalized",[12],−1.3463
same,"area under the viability curve (AUC), normalized",[13],1.227
same,"area under the viability curve (AUC), normalized",[14],−2.466
same,"area under the viability curve (AUC), normalized",[15],0.6494
same,"area under the viability curve (AUC), normalized",[16],−0.5071
same,"area under the viability curve (AUC), normalized",[17],1.044
same,"area under the viability curve (AUC), normalized",[18],−0.6492
same,"area under the viability curve (AUC), normalized",[19],−0.4775
same,"area under the viability curve (AUC), normalized",[20],0.4641
same,"area under the viability curve (AUC), normalized",[21],0.1047
same,"area under the viability curve (AUC), normalized",[22],−0.7945
same,"area under the viability curve (AUC), normalized",[23],0.9531
same,"area under the viability curve (AUC), normalized",[24],1.587
same,"area under the viability curve (AUC), normalized",[25],5.211
same,"area under the viability curve (AUC), normalized",[26],−1.373
same,"area under the viability curve (AUC), normalized",[27],−0.9259
same,"area under the viability curve (AUC), normalized",[28],0.9745
same,"area under the viability curve (AUC), normalized",[29],−1.393
same,normalized viability AUC,[30],negative
same,AUC value,[31],high
